Results as given in US6180664A (priority 1996, dated 2001).

Tests used:
[1] = tested on: isolated rabbit aortic rings; assay: tissue or blood
blood = conditions: cited from earlier work

Compound: CCOC(=O)C(CO[N+](=O)[O-])(CO[N+](=O)[O-])C(=O)OCC [Bis-MA diethyl ester, Diethyl 2,2-bis(nitryloxymethyl)malonate]
- EC50 ([1]; Oryctolagus cuniculus, read-out: pD2 value (converted)): 0.251 µM

Compound: O=[N+]([O-])OCC(CO)(CO)CO [PEMN, pentaerythrityl mononitrate]
- pD2 value [1]: 5

Compound: CCCCCCCCCCCCCCCCOCC(COP(=O)([O-])OCC[N+](C)(C)C)OC(C)=O (stereo not shown) [platelet activation factor]
- concentration inducing platelet aggregation (blood): 0.1 nM
- concentration inducing vasodilation (blood): 0.1 nM
